System: J774A.1 cells
Assay: Viability of J774A.1 cells after thin-film freeze-drying (TFFD), trypan blue stain
Format: cell-based, murine
Source text: Excipients that were used for their ability to preserve the cells includes disaccharide such as Trehalose, antioxidants such as EGCG, D-α-tocopherol succinate, D-α-tocopherol PEG1000 succinate, Trolox, glutathione, and L-ascorbic acid, polymers such as PVP-40, P-188, dextrin, dextran, and HSA. An equivalent volume of the above-mentioned excipients in complete DMEM or Dulbecco phosphate buffered saline (DPBS) was mixed with cells at final cell concentration of 2.5×10^6 cells/ml for J774A.1 macrophages or 1.0×10^6 cells/mL for THP-1 cells. Cells mixed with trehalose and antioxidant were incubated at 37° C. in 5% CO2 incubator. Polymers and proteins were added to the cells without incubation. The TFF technique was applied to the cell suspension by dropping them as droplets of 3.6-3.8 mm in diameter, 200 μl in 7-8 drops, from a distance of 1-10 cm onto the surface of a cryogenically cooled glass (˜−80° C. achieved using dry ice), which were then stored in −80° C. for 1 h until the lyophilization process. The lyophilizer shelf temperature was set at −35° C., with vacuum pressure at 100 mTorr for 12 h. To measure the viability of the cells after TFFD, the powders were resuspended in DMEM media or DPBS, and cell viability was assessed after trypan blue stain (0.4%, Gibco, Grand Island, NY) using a TC20 Bio-Rad automatic cell counter (Hercules, CA).

Structure (SMILES)	effect on J774A.1 cell viability after TFFD (antioxidant at 800 μg/ml)	effect on J774A.1 cell viability after TFFD (antioxidant at 500 µM)
Cc1c(C)c2c(c(C)c1OC(=O)CCC(=O)O)CC[C@@](C)(CCC[C@H](C)CCC[C@H](C)CCCC(C)C)O2 [D-α-tocopherol succinate]	helped improve the viability	
Cc1c(C)c2c(c(C)c1O)CCC(C)(C(=O)O)O2 (centres unmarked) [Trolox]		helped improve the viability

Reference: patent US20250242006A1, “DRY POWDER COMPOSITIONS COMPRISING EUKARYOTIC CELLS AND METHOD OF THEIR MANUFACTURE AND USE” (BOARD OF REGENTS, THE UNIVERSITY OF TEXAS SYSTEM, priority 2021, published 2025)
